# Assay results published in US20230407243A1, “GENETIC PLATFORM TO INVESTIGATE THE FUNCTIONS OF BACTERIAL DRUG EFFLUX PUMPS” (priority 2022, published 2023).
# Key:
# Type in all cases: cell-based, Escherichia coli
# EKO-35-Pore = assay: MIC susceptibility profiling, porinated strain
# How it was run: (§1)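 E. coli strains carrying a genomically integrated constitutive fhuA ΔC/Δ4L pore were grown 18 h in LB at 37 °C, then diluted 1/2000 in MHB II from OD600 ~1.0. Compounds were tested in duplicate, 2-fold serial titration, for 18 h at 37 °C with shaking. MIC came from OD600 with the pre-incubation background subtracted.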
# EKO-35 araC::mexCD Pore = assay: MIC susceptibility profiling, porinated efflux platform
# How it was run: as §1
# EKO-35 araC::acrB Pore = assay: as above
# How it was run: as §1
# EKO-35 araC::emrAB Pore = assay: as above
# How it was run: as §1
# EKO-35 araC::mdtBC Pore = assay: as above
# How it was run: as §1
# [1] = system: EKO-35 araC::acrBD408A Pore; assay: as above
# How it was run: as §1
# EKO-35 araC::acrEF Pore = assay: as above; conditions: Table 14A; porinated; technical duplicate
# How it was run: as §1
# EKO-35 araC::acrD Pore = assay: as above
# How it was run: as §1
# EKO-35 araC::mdtEF Pore = assay: as above
# How it was run: as §1
# EKO-35 araC::emrKY Pore = assay: as above
# How it was run: as §1
# EKO-35 araC::macAB Pore = assay: as above
# How it was run: as §1
# ΔtolC-Pore = assay: microbe, parasite or virus in culture; conditions: technical duplicate
# How it was run: as §1
# wild-type (WT) K-12-Pore = assay: microbe, parasite or virus in culture; conditions: technical duplicate
# How it was run: as §1
# [2] = system: wild-type E. coli K-12 str. BW25113; assay: microbe, parasite or virus in culture; conditions: technical duplicate
# How it was run: (§2)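 MIC derived from pre-incubation-corrected OD600 after 18 h growth at 37° C. (900 rpm) in MHB II. Inoculum was cells from 18 h LB culture adjusted to OD600 ~1.0 in PBS, then diluted 1/2000; compounds two-fold serially titrated in duplicate, DMSO as solvent control.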
# E. coli ΔtolC = assay: microbe, parasite or virus in culture; conditions: technical duplicate
# How it was run: as §2
# E. coli EKO-35 = assay: microbe, parasite or virus in culture
# How it was run: as §2
# EKO-35 araC::acrEF = assay: MIC susceptibility profiling, efflux platform
# How it was run: as §2
# EKO-35 araC::macAB = assay: MIC susceptibility profiling, efflux platform
# How it was run: as §2
# EKO-35 araC::emrAB = assay: MIC susceptibility profiling, efflux platform
# How it was run: as §2
# [3] = Table 14A, porinated, technical duplicate
# [4] = Table 13A, non-porinated, technical duplicate
# [5] = Table 13B, non-porinated, technical duplicate
smiles,measurement,setting,value
O=C(NC(=O)N1CCc2c([nH]c3ccccc23)C1C(F)(F)F)c1ccccc1 (centres unmarked) [compound 13],Fold changes of MICs,EKO-35-Pore; EKO-35-Pore compared to EKO-35-Pore (reference),1 fold
same,"Minimum inhibitory concentration (MIC), Pore EKO-35","EKO-35-Pore; Table 10, with pore, technical duplicate",5 µg/mL
same,"Minimum inhibitory concentration, EKO-35-Pore",EKO-35-Pore; [3],5 µg/mL
same,Fold changes of MICs,EKO-35 araC::mexCD Pore; EKO-35 araC::mexCD Pore compared to EKO-35-Pore,1 fold
same,Minimum inhibitory concentration,"EKO-35 araC::mexCD Pore; EKO-35 araC::mexCD Pore, technical duplicate",5 µg/mL
same,efflux pump-mediated resistance vs EKO-35-Pore,"EKO-35 araC::mexCD Pore; MexCD, OM compromised",no longer associated MexCD with resistance
same,Fold changes of MICs,EKO-35 araC::acrB Pore; EKO-35 araC::acr-B Pore compared to EKO-35-Pore,64 fold
same,"Minimum inhibitory concentration, EKO-35 araC::acrB Pore",EKO-35 araC::acrB Pore; [3],320 µg/mL
same,Fold changes of MICs,EKO-35 araC::emrAB Pore; EKO-35 araC::emrAB Pore compared to EKO-35-Pore,2 fold
same,Minimum inhibitory concentration,"EKO-35 araC::emrAB Pore; EKO-35 araC::emrAB Pore, technical duplicate",10 µg/mL
same,Fold changes of MICs,EKO-35 araC::mdtBC Pore; EKO-35 araC::mdtBC Pore compared to EKO-35-Pore,1 fold
same,Minimum inhibitory concentration,"EKO-35 araC::mdtBC Pore; EKO-35 araC::mdtBC Pore, technical duplicate",5 µg/mL
same,Fold changes of MICs,[1]; EKO-35 araC::acrBD408A Pore compared to EKO-35-Pore,1 fold
same,Minimum inhibitory concentration,"[1]; EKO-35 araC::acrBD408A Pore, technical duplicate",5 µg/mL
same,"Minimum inhibitory concentration, EKO-35 araC::acrEF Pore",EKO-35 araC::acrEF Pore,20 µg/mL
same,Fold changes of MICs,EKO-35 araC::acrD Pore; EKO-35 araC::acrD Pore compared to EKO-35-Pore,2 fold
same,"Minimum inhibitory concentration, EKO-35 araC::acrD Pore",EKO-35 araC::acrD Pore; [3],10 µg/mL
same,Fold changes of MICs,EKO-35 araC::mdtEF Pore; EKO-35 araC::mdtEF Pore compared to EKO-35-Pore,8 fold
same,"Minimum inhibitory concentration, EKO-35 araC::mdtEF Pore",EKO-35 araC::mdtEF Pore; [3],40 µg/mL
same,Fold changes of MICs,EKO-35 araC::emrKY Pore; EKO-35 araC::emrKY Pore compared to EKO-35-Pore,1 fold
same,Minimum inhibitory concentration,"EKO-35 araC::emrKY Pore; EKO-35 araC::emrKY Pore, technical duplicate",2.5 µg/mL
same,Fold changes of MICs,EKO-35 araC::macAB Pore; EKO-35 araC::macAB Pore compared to EKO-35-Pore,1 fold
same,Minimum inhibitory concentration,"EKO-35 araC::macAB Pore; EKO-35 araC::macAB Pore, technical duplicate",5 µg/mL
same,"Minimum inhibitory concentration (MIC), Pore ΔtolC","ΔtolC-Pore; Table 10, with pore",1.25 µg/mL
same,"Minimum inhibitory concentration, ΔtolC-Pore","ΔtolC-Pore; Table 14A, porinated",1.25 µg/mL
same,"Minimum inhibitory concentration (MIC), Pore K-12","wild-type (WT) K-12-Pore; Table 10, with pore",320 µg/mL
same,"Minimum inhibitory concentration, K-12 (WT)-Pore","wild-type (WT) K-12-Pore; Table 14A, porinated",320 µg/mL
same,"Minimum inhibitory concentration (MIC), K-12","[2]; Table 10, without pore",320 µg/mL
same,"Minimum Inhibitory Concentration, K-12","[2]; Table 13A, non-porinated",320 µg/mL
same,"Minimum inhibitory concentration (MIC), ΔtolC","E. coli ΔtolC; Table 10, without pore",1.25 µg/mL
same,"Minimum Inhibitory Concentration, ΔtolC","E. coli ΔtolC; Table 13A, non-porinated",1.25 µg/mL
same,Fold change of MICs,E. coli EKO-35; EKO-35 compared to EKO-35 (reference),1 fold
same,"Minimum inhibitory concentration (MIC), EKO-35","E. coli EKO-35; Table 10, without pore, technical duplicate",40 µg/mL
same,"Minimum Inhibitory Concentration, EKO-35",E. coli EKO-35; [4],40 µg/mL
same,susceptibility of EKO-35 to the compound,E. coli EKO-35; synthetic efflux substrates of FIG. 12,susceptible
same,Fold change of MICs,EKO-35 araC::acrEF; EKO-35 araC::acrEF compared to EKO-35,8 fold
same,"Minimum Inhibitory Concentration, EKO-35 araC::acrEF",EKO-35 araC::acrEF; [4],320 µg/mL
same,Fold change of MICs,EKO-35 araC::macAB; EKO-35 araC::macAB compared to EKO-35,1 fold
same,"Minimum Inhibitory Concentration, EKO-35 araC::macAB",EKO-35 araC::macAB; [5],40 µg/mL
same,Fold change of MICs,EKO-35 araC::emrAB; EKO-35 araC::emrAB compared to EKO-35,8 fold
same,"Minimum Inhibitory Concentration, EKO-35 araC::emrAB",EKO-35 araC::emrAB; [5],320 µg/mL
